US8022206B2 (OSI Pharmaceuticals, LLC, priority 2008, dated 2011)

What was measured:
[1] = target: RON (human) (Homo sapiens, UniProt Q04912); assay: RON (human) AlphaScreen kinase assay, Km of ATP; assay type: biochemical; settings: AlphaScreen, Km of ATP; read-out: RON biochemical IC50
Summary of the method: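 Detection used PT66 AlphaScreen beads added in Tris pH 7.5/NaCl/EDTA/BSA buffer, read after 1 h incubation. Vehicle-only DMSO wells served as controls.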

[2] = target: MET (human) (Homo sapiens, UniProt P08581); assay: MET (human) AlphaScreen kinase assay, Km of ATP; assay type: biochemical; settings: AlphaScreen, Km of ATP; read-out: Met biochemical IC50
Summary of the method: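 Human MET at lot-optimised concentration in 50 mM Tris pH 7.4 buffer with 1 mM DTT, compound at 1% DMSO final; enzyme starts the reaction, 60 min at RT.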

Chain of MET (human) (P08581 25-1390): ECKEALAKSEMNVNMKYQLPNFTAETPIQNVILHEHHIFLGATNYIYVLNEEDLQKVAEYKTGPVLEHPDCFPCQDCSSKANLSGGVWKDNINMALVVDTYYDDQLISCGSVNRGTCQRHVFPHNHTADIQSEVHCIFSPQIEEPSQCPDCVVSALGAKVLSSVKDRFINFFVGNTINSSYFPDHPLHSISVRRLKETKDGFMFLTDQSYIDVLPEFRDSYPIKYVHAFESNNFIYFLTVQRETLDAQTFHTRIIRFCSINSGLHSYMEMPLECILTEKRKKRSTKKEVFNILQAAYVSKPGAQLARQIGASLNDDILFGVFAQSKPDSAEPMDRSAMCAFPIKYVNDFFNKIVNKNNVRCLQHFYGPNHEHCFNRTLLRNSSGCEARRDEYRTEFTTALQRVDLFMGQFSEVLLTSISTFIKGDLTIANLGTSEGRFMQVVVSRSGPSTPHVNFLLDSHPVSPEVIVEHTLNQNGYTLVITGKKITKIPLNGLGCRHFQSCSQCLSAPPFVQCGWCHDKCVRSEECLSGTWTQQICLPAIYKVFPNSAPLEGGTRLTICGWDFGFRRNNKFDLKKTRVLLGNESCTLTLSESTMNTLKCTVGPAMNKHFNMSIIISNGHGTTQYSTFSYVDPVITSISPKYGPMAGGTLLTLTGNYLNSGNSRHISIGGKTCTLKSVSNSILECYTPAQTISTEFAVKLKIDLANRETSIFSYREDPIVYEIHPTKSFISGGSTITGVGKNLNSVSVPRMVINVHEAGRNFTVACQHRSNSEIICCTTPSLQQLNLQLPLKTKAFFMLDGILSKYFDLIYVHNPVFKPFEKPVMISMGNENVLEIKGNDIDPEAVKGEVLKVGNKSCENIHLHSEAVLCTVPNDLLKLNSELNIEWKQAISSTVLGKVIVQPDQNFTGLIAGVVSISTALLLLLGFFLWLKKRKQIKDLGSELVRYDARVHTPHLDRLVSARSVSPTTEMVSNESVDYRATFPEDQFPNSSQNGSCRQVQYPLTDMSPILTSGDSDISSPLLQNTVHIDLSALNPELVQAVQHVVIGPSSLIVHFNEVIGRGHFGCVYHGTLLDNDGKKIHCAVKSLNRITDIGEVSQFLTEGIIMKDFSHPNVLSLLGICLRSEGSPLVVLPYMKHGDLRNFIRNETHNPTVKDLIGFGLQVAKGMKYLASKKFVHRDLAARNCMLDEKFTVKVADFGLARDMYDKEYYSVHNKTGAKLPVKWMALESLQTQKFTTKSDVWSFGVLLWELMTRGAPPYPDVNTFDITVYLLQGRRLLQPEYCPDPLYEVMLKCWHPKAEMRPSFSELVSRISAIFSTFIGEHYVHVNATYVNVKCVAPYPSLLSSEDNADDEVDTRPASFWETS
Chain of RON (human) (Q04912 25-1400): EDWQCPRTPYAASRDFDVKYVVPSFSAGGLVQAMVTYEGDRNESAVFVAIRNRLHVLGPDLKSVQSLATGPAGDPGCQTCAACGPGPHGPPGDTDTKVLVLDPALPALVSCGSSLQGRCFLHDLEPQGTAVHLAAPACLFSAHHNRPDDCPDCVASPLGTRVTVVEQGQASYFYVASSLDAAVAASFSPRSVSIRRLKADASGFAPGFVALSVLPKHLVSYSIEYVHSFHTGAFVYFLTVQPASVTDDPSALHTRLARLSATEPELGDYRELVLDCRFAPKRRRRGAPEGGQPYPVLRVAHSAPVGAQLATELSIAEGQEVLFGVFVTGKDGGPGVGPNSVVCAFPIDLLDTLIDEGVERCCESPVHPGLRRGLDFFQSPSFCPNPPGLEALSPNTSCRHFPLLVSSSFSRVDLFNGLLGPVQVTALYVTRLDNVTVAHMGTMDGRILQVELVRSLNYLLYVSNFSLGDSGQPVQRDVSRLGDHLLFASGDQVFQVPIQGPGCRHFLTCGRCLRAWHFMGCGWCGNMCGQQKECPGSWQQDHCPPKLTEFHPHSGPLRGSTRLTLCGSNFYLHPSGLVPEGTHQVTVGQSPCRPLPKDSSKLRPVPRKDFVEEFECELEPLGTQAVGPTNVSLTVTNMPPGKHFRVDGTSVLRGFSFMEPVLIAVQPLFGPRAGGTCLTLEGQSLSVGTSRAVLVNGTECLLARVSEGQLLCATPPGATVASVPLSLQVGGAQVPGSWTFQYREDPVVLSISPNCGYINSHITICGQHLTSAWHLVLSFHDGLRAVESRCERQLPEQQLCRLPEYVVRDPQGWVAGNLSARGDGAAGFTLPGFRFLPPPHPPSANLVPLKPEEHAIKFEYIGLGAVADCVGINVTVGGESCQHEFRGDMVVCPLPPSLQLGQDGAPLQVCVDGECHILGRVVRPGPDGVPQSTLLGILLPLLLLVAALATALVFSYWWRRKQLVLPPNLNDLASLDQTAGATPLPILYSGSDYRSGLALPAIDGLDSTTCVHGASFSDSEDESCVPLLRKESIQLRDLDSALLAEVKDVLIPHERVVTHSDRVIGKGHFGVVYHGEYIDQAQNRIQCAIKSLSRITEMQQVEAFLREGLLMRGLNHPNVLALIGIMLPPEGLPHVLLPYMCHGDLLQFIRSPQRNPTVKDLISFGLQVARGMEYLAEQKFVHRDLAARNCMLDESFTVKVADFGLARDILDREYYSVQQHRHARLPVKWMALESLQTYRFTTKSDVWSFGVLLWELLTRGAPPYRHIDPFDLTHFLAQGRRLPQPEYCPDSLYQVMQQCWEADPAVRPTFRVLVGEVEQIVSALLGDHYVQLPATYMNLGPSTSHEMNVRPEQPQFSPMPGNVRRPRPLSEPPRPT

Row | IC50 [1] | IC50 [2] | Structure (SMILES)
1 | < 0.5 µM | < 0.5 µM | C[C@@H](Oc1c(N)ncc2c(C3=CCN(C(=O)[C@H]4CCNC4)CC3)coc12)c1c(Cl)ccc(F)c1Cl [Example 237, (4-{6-Amino-7-[(R)-1-(2,6-dichloro-3-fluorophenyl)ethoxy]-furo[3,2-c]pyridin-3-yl}-3,6-dihydro-2H-pyridin-1-yl)-(S)-pyrrolidin-3-ylmethanone]
2 | 0.5 to 5 µM | 0.5 to 5 µM | CC(Oc1c(N)ncc2c(-c3cnn(C4CCNCC4)c3)coc12)c1nc2ccccc2[nH]1 (centres unmarked) [Example 403, 7-[1-(1H-Benzimidazol-2-yl)ethoxy]-3-(1-piperidin-4-yl-1H-pyrazol-4-yl)furo[3,2-c]pyridin-6-ylamine]
3 | < 0.5 µM | < 0.5 µM | CC(Oc1c(N)ncc2c(-c3cnn(C4CCNCC4)c3)coc12)c1c(Cl)cccc1Br (centres unmarked) [Example 361, 7-[1-(2-Bromo-6-chlorophenyl)ethoxy]-3-(1-piperidin-4-yl-1H-pyrazol-4-yl)furo[3,2-c]pyridin-6-ylamine]
4 | 0.5 to 5 µM | < 0.5 µM | C[C@@H](Oc1c(N)ncc2c(C3=CCN(C(=O)[C@@H](N)c4ccccc4)CC3)coc12)c1c(Cl)ccc(F)c1Cl [Example 261, (2S)-2-Amino-1-[4-{6-amino-7-[(1R)-1-(2,6-dichloro-3-fluoro-phenyl)ethoxy]furo[3,2-c]pyridin-3-yl}-3,6-dihydropyridin-1(2H)-yl]-2-phenylethanone]
5 | < 0.5 µM | < 0.5 µM | C[C@@H](Oc1c(N)ncc2c(-c3cnn(C4CCNCC4)c3)c(C#CCN)oc12)c1c(Cl)ccc(F)c1Cl [Example 173, 2-(3-Aminoprop-1-ynyl)-7-[(R)-1-(2,6-dichloro-3-fluorophenyl)ethoxy]-3-(1-piperidin-4-yl-1H-pyrazol-4-yl)-furo[3,2-c]pyridin-6-ylamine]
6 | 0.5 to 5 µM | < 0.5 µM | C[C@@H](Oc1c(N)ncc2c(-c3ccn4ccnc4c3)coc12)c1c(Cl)ccc(F)c1Cl [Example 82, 7-[(R)-1-(2,6-Dichloro-3-fluorophenyl)ethoxy]-3-imidazo[1,2-a]pyridin-7-ylfuro[3,2-c]pyridin-6-ylamine]
7 | < 0.5 µM | < 0.5 µM | C[C@@H](Oc1c(N)ncc2c(C3=CCN(C(=O)N4CCN(C)CC4)CC3)coc12)c1c(Cl)ccc(F)c1Cl [Example 225, (4-{6-Amino-7-[(R)-1-(2,6-dichloro-3-fluorophenyl)-ethoxy]-furo[3,2-c]pyridin-3-yl}-3,6-dihydro-2H-pyridin-1-yl)-(4-methylpiperazin-1-yl)-methanone]
8 | 0.5 to 5 µM | < 0.5 µM | C[C@@H](Oc1c(N)ncc2c(-c3csc(C(=O)O)c3)coc12)c1c(Cl)ccc(F)c1Cl [Example 311, 4-{6-Amino-7-[(R)-1-(2,6-dichloro-3-fluorophenyl)ethoxy]furo[3,2-c]pyridin-3-yl}thiophene-2-carboxylic acid]
9 | 0.5 to 5 µM | < 0.5 µM | C[C@@H](Oc1c(N)ncc2c(C3=CCN(Cc4ccccc4)CC3)coc12)c1c(Cl)ccc(F)c1Cl [Example 39, 3-(1-Benzyl-1,2,3,6-tetrahydropyridin-4-yl)-7-[(R)-1-(2,6-dichloro-3-fluorophenyl)-ethoxy]-furo[3,2-c]pyridin-6-ylamine]
10 | < 0.5 µM | < 0.5 µM | C[C@@H](Oc1c(N)ncc2c(-c3csc(C(=O)N4CCN(C)CC4)c3)coc12)c1c(Cl)ccc(F)c1Cl [Example 316, (4-{6-Amino-7-[(R)-1-(2,6-dichloro-3-fluorophenyl)ethoxy]furo[3,2-c]pyridin-3-yl}thiophen-2-yl)-(4-methylpiperazin-1-yl)methanone]
11 | > 20 µM | 0.5 to 5 µM | C[C@H](Oc1c(N)ncc2c(-c3cnn(C4CCNCC4)c3)coc12)c1nnc2ccc(-c3ccccc3)nn12 [Example 478, 7-[(1S)-1-(6-phenyl[1,2,4]triazolo[4,3-b]pyridazin-3-yl)ethoxy]-3-[1-(piperidin-4-yl)-1H-pyrazol-4-yl]furo[3,2-c]pyridin-6-amine]
12 | 0.5 to 5 µM | < 0.5 µM | C[C@@H](Oc1c(N)ncc2c(C3=CCN(c4c(N)c(=O)c4=O)CC3)coc12)c1c(Cl)ccc(F)c1Cl [Example 205, 3-Amino-4-(4-{6-amino-7-[(R)-1-(2,6-dichloro-3-fluorophenyl)ethoxy]-furo[3,2-c]pyridin-3-yl}-3,6-dihydro-2H-pyridin-1-yl)-cyclobut-3-ene-1,2-dione]
13 | 5 to 20 µM | > 20 µM | Cn1c(Cc2ccccc2)ncc(-c2ccc(COc3c(N)ncc4ccoc34)cc2)c1=O [Example 467, 5-[4-(6-Aminofuro[3,2-c]pyridin-7-yloxymethyl)phenyl]-2-benzyl-3-methyl-3H-pyrimidin-4-one]
14 | 0.5 to 5 µM | < 0.5 µM | C[C@@H](Oc1c(N)ncc2c(C(=O)NCCN)coc12)c1c(Cl)ccc(F)c1Cl [Example 193, 6-Amino-7-[(R)-1-(2,6-dichloro-3-fluorophenyl)ethoxy]furo[3,2-c]pyridine-3-carboxylic acid (3-aminoethyl)amide]
15 | 0.5 to 5 µM | < 0.5 µM | Cc1oc2c(O[C@H](C)c3c(Cl)ccc(F)c3Cl)c(N)ncc2c1-c1cnn(C2CCNCC2)c1 [Example 168, 7-[(R)-1-(2,6-Dichloro-3-fluorophenyl)ethoxy]-2-methyl-3-(1-piperidin-4-yl-1H-pyrazol-4-yl)-furo[3,2-c]pyridin-6-ylamine]
16 | 0.5 to 5 µM | 0.5 to 5 µM | CCNC(=O)c1ccc(-c2coc3c(O[C@H](C)c4c(Cl)ccc(F)c4Cl)c(N)ncc23)s1 [Example 207, 5-{6-Amino-7-[(R)-1-(2,6-dichloro-3-fluorophenyl)ethoxy]-furo[3,2-c]pyridin-3-yl}-thiophene-2-carboxylic acid ethyl amide]
17 | < 0.5 µM | < 0.5 µM | C[C@@H](Oc1c(N)ncc2c(-c3ccc(CN4CCCCC4)s3)coc12)c1c(Cl)ccc(F)c1Cl [Example 215, 7-[(R)-1-(2,6-Dichloro-3-fluorophenyl)ethoxy]-3-(5-piperidin-1-ylmethylthiophen-2-yl)-furo[3,2-c]pyridin-6-ylamine]
18 | 0.5 to 5 µM | < 0.5 µM | C[C@@H](Oc1c(N)ncc2c(C3=CCN(C(=O)[C@H](N)Cc4ccccc4)CC3)coc12)c1c(Cl)ccc(F)c1Cl [Example 257, (2R)-2-Amino-1-[4-{6-amino-7-[(1R)-1-(2,6-dichloro-3-fluoro-phenyl)ethoxy]furo[3,2-c]pyridin-3-yl}-3,6-dihydropyridin-1(2H)-yl]-3-phenylpropan-1-one]
19 | 0.5 to 5 µM | 0.5 to 5 µM | C[C@@H](Oc1c(N)ncc2c(-c3csc(C(=O)N4CCC(O)CC4)c3)coc12)c1c(Cl)ccc(F)c1Cl [Example 313, (4-{6-Amino-7-[(R)-1-(2,6-dichloro-3-fluorophenyl)ethoxy]-furo[3,2-c]pyridin-3-yl}-thiophen-2-yl)-(4-hydroxypiperidin-1-yl)methanone]
20 | 0.5 to 5 µM | 0.5 to 5 µM | CC(Oc1c(N)ncc2c(-c3cnn(C4CCNCC4)c3)coc12)c1ccc(OC(F)(F)F)cc1 (centres unmarked) [Example 355, 3-(1-Piperidin-4-yl-1H-pyrazol-4-yl)-7-[1-(4-trifluoromethoxy-phenyl)ethoxy]furo[3,2-c]pyridin-6-ylamine]
21 | 0.5 to 5 µM | 0.5 to 5 µM | CC(Oc1c(N)ncc2c(-c3cnn(C4CCNCC4)c3)coc12)c1ccccc1C(F)(F)F (centres unmarked) [Example 346, 3-(1-Piperidin-4-yl-1H-pyrazol-4-yl)-7-[1-(2-trifluoromethyl-phenyl)ethoxy]furo[3,2-c]pyridin-6-ylamine]
22 | < 0.5 µM | < 0.5 µM | C[C@@H](Oc1c(N)ncc2c(C3=CCN(C(=O)[C@H](N)c4ccccc4)CC3)coc12)c1c(Cl)ccc(F)c1Cl [Example 262, (2R)-2-Amino-1-[4-{6-amino-7-[(1R)-1-(2,6-dichloro-3-fluoro-phenyl)ethoxy]furo[3,2-c]pyridin-3-yl}-3,6-dihydropyridin-1(2H)-yl]-2-phenylethanone]
23 | 0.5 to 5 µM | 0.5 to 5 µM | C[C@H](Oc1c(N)ncc2c(-c3cnn(C4CCNCC4)c3)coc12)c1ccccn1 [Example 395, 3-(1-Piperidin-4-yl-1H-pyrazol-4-yl)-7-((S)-1-pyridin-2-yl-ethoxy)furo[3,2-c]pyridin-6-ylamine]
24 | 0.5 to 5 µM | 0.5 to 5 µM | COc1ccc(CC(C)Oc2c(N)ncc3c(-c4cnn(C5CCNCC5)c4)coc23)cc1 (centres unmarked) [Example 431, 7-[2-(4-Methoxyphenyl)-1-methylethoxy]-3-(1-piperidin-4-yl-1H-pyrazol-4-yl)furo[3,2-c]pyridin-6-ylamine]
25 | 0.5 to 5 µM | 0.5 to 5 µM | C[C@@H](Oc1c(N)ncc2c(-c3ccc(N4CCN(C(N)=O)CC4)cc3)coc12)c1c(Cl)ccc(F)c1Cl [Example 320, 4-(4-{6-Amino-7-[(R)-1-(2,6-dichloro-3-fluorophenyl)ethoxy]furo[3,2-c]pyridin-3-yl}phenyl)piperazine-1-carboxamide]
26 | 0.5 to 5 µM | 0.5 to 5 µM | CN/C(=N/C#N)N1CC=C(c2coc3c(O[C@H](C)c4c(Cl)ccc(F)c4Cl)c(N)ncc23)CC1 [Example 198, 4-{6-Amino-7-[(R)-1-(2,6-dichloro-3-fluorophenyl)ethoxy]-furo[3,2-c]pyridin-3-yl}-N-cyano-N′-methyl-3,6-dihydro-2H-pyridine-1-carboxamidine]
27 | 0.5 to 5 µM | 0.5 to 5 µM | CNC(=O)c1ccc(-c2coc3c(O[C@H](C)c4c(Cl)ccc(F)c4Cl)c(N)ncc23)cc1 [Example 289, 4-{6-Amino-7-[(R)-1-(2,6-dichloro-3-fluorophenyl)ethoxy]furo[3,2-c]pyridin-3-yl}-N-methylbenzamide]

Row | Structure (SMILES) | IC50 [1] | IC50 [2]
28 | CCCN1CC=C(c2coc3c(O[C@H](C)c4c(Cl)ccc(F)c4Cl)c(N)ncc23)CC1 [Example 42, 7-[(R)-1-(2,6-Dichloro-3-fluorophenyl)-ethoxy]-3-(1-propyl-1,2,3,6-tetrahydropyridin-4-yl)-furo[3,2-c]pyridin-6-ylamine] | < 0.5 µM | < 0.5 µM
